Substitutions are numbered along the chain they refer to. Several values for one entry are separate records, joined by “and”; a condition that tells them apart may be missing. Equal entries are not always repeated. Where two headings read alike, the source gives them in different places.
Key:
M2R [1] = biological target: T1, M2R (Homo sapiens, UniProt P08172, M139L/M142L/M1T/M248L/M296L/M368L/M456T/M45L); assay type: biochemical; details: 100 μM Ixo or 1 mM carbachol
T1 construct: We used a full-length construct M2RFL△8 M for complexing with miniGαo and β-arrestin-1; FLAG (N); 8xHis (C); made in house; host or cells: Sf9 insect cells
T1 sequence (P08172 1-466 M1T/M45L/M139L/M142L/M248L/M296L/M368L/M456T): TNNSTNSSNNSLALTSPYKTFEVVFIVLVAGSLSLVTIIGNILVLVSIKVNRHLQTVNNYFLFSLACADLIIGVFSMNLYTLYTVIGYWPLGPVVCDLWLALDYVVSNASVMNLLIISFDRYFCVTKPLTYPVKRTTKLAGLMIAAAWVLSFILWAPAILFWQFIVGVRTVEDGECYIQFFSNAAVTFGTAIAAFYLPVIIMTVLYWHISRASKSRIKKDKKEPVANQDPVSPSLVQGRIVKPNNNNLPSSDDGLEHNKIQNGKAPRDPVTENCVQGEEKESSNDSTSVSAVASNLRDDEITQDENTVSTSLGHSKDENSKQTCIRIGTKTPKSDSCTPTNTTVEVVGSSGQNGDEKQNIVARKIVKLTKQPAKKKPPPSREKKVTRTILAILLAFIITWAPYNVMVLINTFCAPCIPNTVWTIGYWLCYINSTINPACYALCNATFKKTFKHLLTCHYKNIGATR
Description: We used a full-length construct M2RFL△8 M for complexing with miniGαo and β-arrestin-1. The receptor was purified as described above for cryo-EM sample. Excess GRK2 was mixed with the M2R in a buffer composed of 20 mM HEPES pH 7.5, 100 mM NaCl, 0.01% MNG, 0.003% CHS, 500 μM ATP in the presence and absence of 100 μM Ixo or 1 mM carbachol to initiate the phosphorylation at room temperature. The extent of phosphorylation at various time points (from 0 to 120 min) was evaluated by Pro-Q and Coomassie blue staining. The final phosphorylated receptor (Ixo-bound) was further evaluated by ion-exchange chromatography. The complex formation test was performed as follows: unphosphorylated Ixo-bound M2RFL△8 M or phosphorylated M2RFL△8 M was mixed with miniGαo or β-arrestin-1, respectively and incubated on ice for 30 min. The receptor alone or mixed complex sample were then analyzed by SEC against 20 mM HEPES pH 7.5, 100 mM NaCl, 0.01% MNG, 0.003% CHS in the presence of 10 μM Ixo.

M2R and GoA = biological target: T2, M2R and GoA (Homo sapiens, UniProt P08172); experiment: GTPase-Glo assay (GTP turnover) with purified M2R and GoA; assay type: biochemical; details: purified wild-type receptor and G-protein
T2 construct: FLAG (N); 8xHis (C); made in house; host or cells: Sf9 insect cells (receptor)
Description: The receptors for GTPase-Glo^TM assay were expressed and purified as described above and frozen at −80 °C before use. […] The GTPase reaction was incubated at room temperature (22–25 °C) for different times (15–90 min). […] After incubation, 5 μL reconstituted 1xGTPase-Glo^TM Reagent (Promega) was added to the completed GTPase reaction, mixed briefly and incubated with shaking for 30 min at room temperature (22–25 °C) to convert the remaining GTP into ATP. Then 10 μL Detection Reagent (Promega) was added to the system and incubated for 5-10 min at room temperature (22–25 °C) to convert the ATP into luminescent signals. Luminescence intensity was quantified using a Multimode Plate Reader (PerkinElmer) luminescence counter.

M2R [2] = biological target: T3, M2R (Homo sapiens, UniProt P08172)
T3 sequence (P08172 1-466): T1 sequence (P08172 1-466 M1T/M45L/M139L/M142L/M248L/M296L/M368L/M456T) with T1M, L45M, L139M, L142M, L248M, L296M, L368M, T456M

M2R [3] = biological target: T3, M2R; experiment: cell-based; parameters: expressed in transfected cells; host or cells: HEK 293T; details: for Emax: HEK-293T
Description: Determination of β-arrestin-2 recruitment was performed applying the PathHunter assay (DiscoverX, Birmingham, U.K.) which is based on fragment complementation of β-galactosidase as described. In detail, HEK293T cells were transfected with the flag-tagged M2 receptor carrying the PKA fragment for enzyme complementation and transferred into 384-well micro plates. […] Determination of chemoluminescence was done with a Clariostar plate reader (BMG, Ortenberg, Germany). […] Normalized curves from three to five individual experiments each done in duplicate were analyzed by non-linear regression applying the algorithms in Prism 8.0 (GraphPad, San Diego, CA) to get dose-response curves representing average EC50 and Emax value.

[4] = biological target: M2 muscarinic receptor (M2R), wild type (human) (UniProt P08172)

C[N+](C)(C)CCOC(N)=O [Carbachol, carbachol]
Phosphorylation intensity (M2R [1]; Time 5 min): 334.849 | Phosphorylation intensity (M2R [1]; Time 10 min): 686.698 | Phosphorylation intensity (M2R [1]; Time 15 min): 1559.5 | Phosphorylation intensity (M2R [1]; Time 30 min): 4508.03 | Phosphorylation intensity (M2R [1]; Time 60 min): 11137.8 | Phosphorylation intensity (M2R [1]; Time 120 min): 15286

Cc1c(Cl)c(OCC(=O)N2CCN(C)CC2)nc2sc(C(=O)NC3CC3)c(N)c12 [LY2119620]
effect on GTP-turnover for both ACh and Ixo (M2R and GoA): significant inhibitory effects | activation of the receptor by the modulator on its own (M2R [2]): can activate the receptor on its own with low efficacy | IP accumulation as % max effect of acetylcholin (M2R [2]; LY2119620 alone log [M] -4): 59.0% and 70.9% and 76.8% and 52.3% and 51.5% and 62.7% and 67.1% | IP accumulation as % max effect of acetylcholin (M2R [2]; LY2119620 alone log [M] -10): 3.3% and -1.8% and -2.5% and -3.4% and 3.1% | inhibition of maximal G-protein activation of both orthosteric agonists (M2R [2]; high concentrations of LY2119620): ~ 10% | Emax (M2R [3]; read-out: arrestin recruitment as % max effect of acetylcholin, LY2119620 log [M] 3-4): 46.3% | Emax (M2R [3]; read-out: arrestin recruitment as % max effect of acetylcholin, LY2119620 log [M] 3-5): 52.5% | Emax (M2R [3]; read-out: arrestin recruitment as % max effect of acetylcholin, LY2119620 log [M] -5): 42.1% | arrestin recruitment as % max effect of acetylcholin (M2R [3]; LY2119620 log [M] 3-4): 48.9% | arrestin recruitment as % max effect of acetylcholin (M2R [3]; LY2119620 log [M] 3-5): 50.0% and 48.5% | arrestin recruitment as % max effect of acetylcholin (M2R [3]; LY2119620 log [M] 3-7): -0.0286% and 2.4% | arrestin recruitment as % max effect of acetylcholin (M2R [3]; LY2119620 log [M] -4): 58.7% and 38.0% and 68.2% and 60.8% and 51.7% | arrestin recruitment as % max effect of acetylcholin (M2R [3]; LY2119620 log [M] -5): 33.4% and 43.9% and 30.6% and 32.3% | arrestin recruitment as % max effect of acetylcholin (M2R [3]; LY2119620 log [M] -6): 10.6% and 7.5% and 6.2% and 2.4% and 3.8% | arrestin recruitment as % max effect of acetylcholin (M2R [3]; LY2119620 log [M] -7): 2.1% and 1.5% and 2.0% and 0.9% and 2.9% | arrestin recruitment as % max effect of acetylcholin (M2R [3]; LY2119620 log [M] -8): 0.6% and 0.5% and 0.9% and -0.171% and -0.548% | arrestin recruitment as % max effect of acetylcholin (M2R [3]; LY2119620 log [M] -9): 1.3% and -0.4% and -1.2% and -3.6%

heterotrimeric GoA protein (from UniProt P09471 1-354; P62873 2-340; P59768 1-71) (complex)
increase of the affinity of ACh in [3H]-NMS competition binding on M2R in HDL particles on addition of GoA [4]: 65 fold | increase of the affinity of Ixo in [3H]-NMS competition binding on M2R in HDL particles on addition of GoA [4]: 27 fold

Reference: paper PMC9870890 (Nature Communications, 2023)
